SMILES strings stand for the structures. ≈ marks a conversion by molar mass, not a printed value. Some results are limits rather than exact numbers.

One assay deals with c-Jun N-terminal kinase. Put plainly: c-Jun N-terminal kinase assay. The assay is classed as biochemical. The note with it: 15 μM ATP. As to the method: (§1) Kinases activities were assayed in Buffer A or C (unless otherwise stated), at 30° C., at a final ATP concentration of 15 μM. Blank values were subtracted and activities calculated as pmoles of phosphate incorporated for a 10 min. incubation (usually expressed in % of the maximal activity, i.e. without inhibitors). Controls were performed with appropriate dilutions of Me2SO. In some cases phosphorylation of the substrate was assessed by autoradiography after SDS-PAGE. IC50 values were estimated from the dose-response curves. • CDK1/cyclin B was extracted in homogenisation buffer from M phase starfish (Marthasterias glacialis) oocytes and purified by affinity chromatography on p9^CKShs1-Sepharose beads, from which it was eluted by free p9^CKShs1 as described. The kinase activity was assayed in buffer C, with 1 mg histone H1/ml, in the presence of 15 μM [γ-^32P] ATP (3,000 Ci/mmol; 1 mCi/ml) in a final volume of 30 μl. After 10 min. incubation at 30° C., 25 μl aliquots of supernatant were spotted onto 2.5×3 cm pieces of Whatman P81 phosphocellulose paper, and, 20 sec. later, the filters were washed five times (for at least 5 min. each time) in a solution of 10 ml phosphoric acid/liter of water. The wet filters were counted in the presence of 1 ml ACS (Amersham) scintillation fluid. • GSK-3β was either purified from rabbit muscle or expressed in and purified from insect Sf9 cells. […]

The next assay relates to melanoma, SK-MEL-5. Put plainly: Human cancer cell line SK-MEL-5 proliferation. The assay is classed as cell-based.
The test system of a further assay is CDK1/cyclin B. Put plainly: Cyclin B release from immobilised CDK1/cyclin B, Western blot. The note with it: high HD concentrations, 30 min., beads washed. The assay is classed as binding, starfish. As to the method: Proteins bound to p9^CKShs1-Sepharose beads (starfish CDK1/cyclin B) were denatured with 2× Laemmli sample buffer. Samples were run on 10% SDS-polyacrylamide gels. Proteins were transferred from the gel to a 0.1 μm nitrocellulose sheet in a milliblot-SDE system (Millipore) for 30 min. at 2.5 mA/cm^2 in transfer buffer. Subsequently, the filter was blocked with 5% low fat milk in TBST for 1 hour. The filter was then washed with TBST and incubated for 1 hour with the first antibodies (anti-PSTAIRE, 1:2000; anti-cyclin B, 1:1000). After 4 washes (1×20 min., 3×5 min.) with TBST, the nitrocellulose sheet was treated for 1 hour with horseradish peroxidase-coupled secondary antibodies diluted in TBST (1:1000). The filter was then washed 5 times (1×20 min., 4×5 min.) with TBST and analysed by enhanced chemioluminescence with ECL detection reagents and hyperfilm MP.
To investigate the mechanism of HD action, kinetic experiments were performed by varying both ATP levels and HD concentrations (FIG. 6A). […] Enzyme activities were assayed as described under the Experimental Procedures section. Results illustrated by FIG. 6A: 1/v vs 1/ATP primary plot. ATP concentrations in the reaction mixture varied from 0.05 to 0.25 mM, concentration of histone H1 was kept constant at 0.7 mg/ml. […] Apparent inhibition constant (Ki) is indicated by an arrow.
(Immunoblotting shows a protein as a band on a membrane.)

The target of another assay is cdk4/cyclin D1 (Homo sapiens, UniProt P11802). Put plainly: cdk4/cyclin D1 kinase assay. The assay is classed as biochemical. The note with it: 15 μM ATP. The method, then: as §1
cdk4/cyclin D1, sequence (P11802 whole entry, species assumed): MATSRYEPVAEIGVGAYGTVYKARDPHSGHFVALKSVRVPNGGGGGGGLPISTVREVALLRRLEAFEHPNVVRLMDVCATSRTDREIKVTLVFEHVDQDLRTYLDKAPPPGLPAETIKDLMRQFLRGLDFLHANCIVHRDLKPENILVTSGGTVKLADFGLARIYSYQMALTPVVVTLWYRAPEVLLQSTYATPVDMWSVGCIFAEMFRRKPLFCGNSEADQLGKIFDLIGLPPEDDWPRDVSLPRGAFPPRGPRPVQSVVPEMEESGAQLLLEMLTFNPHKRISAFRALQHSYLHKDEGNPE
cdk4/cyclin D1, sequence (P24385 whole entry partner, species assumed): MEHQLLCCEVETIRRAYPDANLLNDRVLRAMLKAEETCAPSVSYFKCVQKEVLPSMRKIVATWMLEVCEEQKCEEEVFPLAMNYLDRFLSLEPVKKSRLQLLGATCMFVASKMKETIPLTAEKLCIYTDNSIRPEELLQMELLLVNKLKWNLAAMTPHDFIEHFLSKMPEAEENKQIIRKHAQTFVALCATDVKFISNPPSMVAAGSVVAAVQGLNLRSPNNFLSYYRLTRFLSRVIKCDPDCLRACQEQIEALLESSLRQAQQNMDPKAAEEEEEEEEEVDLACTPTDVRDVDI
Assay [1] deals with 60 human tumor cell lines. Put plainly: NCI disease-oriented in vitro screen. The assay is classed as cell-based. The note with it: 48 hr exposure, 0.01–100 μM, read-out: average IC50 over 60 human tumor cell lines. An excerpt: A sulforhodaminine B protein assay was used to estimate the cytotoxicity.
The target in another assay is topoisomerase I (Homo sapiens, UniProt P11387). Put plainly: topoisomerase I assay. The format is biochemical. Particulars: −(x) = no effect at the highest dose tested (in parentheses). The method, then: Enzyme activities were assayed as described in the Experimental Procedures section, in the presence of increasing HD concentrations. IC50's were calculated from the dose-response curves.−, no effect at the highest dose tested (in parentheses).
topoisomerase I, sequence (P11387 whole entry): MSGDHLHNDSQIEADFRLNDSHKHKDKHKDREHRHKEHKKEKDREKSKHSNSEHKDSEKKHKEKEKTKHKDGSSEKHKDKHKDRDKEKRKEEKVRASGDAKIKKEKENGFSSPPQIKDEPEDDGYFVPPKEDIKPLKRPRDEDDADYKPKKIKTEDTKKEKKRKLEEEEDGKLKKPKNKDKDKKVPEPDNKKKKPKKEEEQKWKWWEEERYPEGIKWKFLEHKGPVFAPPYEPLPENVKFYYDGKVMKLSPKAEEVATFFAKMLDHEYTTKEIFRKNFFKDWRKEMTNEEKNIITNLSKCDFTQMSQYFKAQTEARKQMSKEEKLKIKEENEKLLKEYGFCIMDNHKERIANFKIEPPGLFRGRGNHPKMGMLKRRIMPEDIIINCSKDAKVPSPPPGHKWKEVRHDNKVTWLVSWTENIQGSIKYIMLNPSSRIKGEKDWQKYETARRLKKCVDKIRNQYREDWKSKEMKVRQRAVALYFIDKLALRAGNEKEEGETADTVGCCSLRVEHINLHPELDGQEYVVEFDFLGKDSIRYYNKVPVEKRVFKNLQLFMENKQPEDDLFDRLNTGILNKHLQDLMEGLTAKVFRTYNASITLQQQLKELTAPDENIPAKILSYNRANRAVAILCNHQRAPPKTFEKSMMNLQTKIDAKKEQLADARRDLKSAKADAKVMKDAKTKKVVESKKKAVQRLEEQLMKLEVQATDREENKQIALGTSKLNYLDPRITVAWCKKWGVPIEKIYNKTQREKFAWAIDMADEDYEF

For the compound `NC1=NC(=O)C(=C2CCNC(=O)c3[nH]c(Br)cc32)N1` [hymenialdisine, 4-(2-amino-4-oxo-2-imidazolin-5-ylidene)-2-bromo-4,5,6,7-tetrahydropyrrolo (2,3-c) azepine-8-one], the half-maximal inhibitory concentration (IC50) – broadly, the concentration that gives 50% inhibition – is 8.5 µM on c-Jun N-terminal kinase; 5.7 µg/mL (≈ 17.6 µM) with melanoma, SK-MEL-5; 0.6 µM against cdk4/cyclin D1; 15.1 µM in assay [1]; > 10 µM on topoisomerase I. For the same compound, the “displacement of cyclin B from CDK1” value in the assay on CDK1/cyclin B was “does not act by displacing cyclin B from CDK1”.

Source of the values: patent publication US7098204B2 (C.N.R.S., priority 1999, dated 2006).
